Results: US8637510B2, “Morpholinothiazoles as alpha 7 positive allosteric modulators” (Janssen Pharmaceutica NV, priority 2009, dated 2014)

Legend:
human alpha 7-wt nAChR = biological target: T1, human alpha 7-wt nAChR (Homo sapiens, UniProt P36544); assay: Ca2+ flux imaging (FDSS) (Protocol B); type: cell-based; details: for EC50: potentiation of 100 μM choline, compounds 0.01 μM to 30 μM, read-out: a7-PAM-G_[33]_pEC50 pEC50 (converted); for Emax: efficacy of 100 μM choline defined as 100% in the absence of a PAM, read-out: a7-PAM-G_[33]_Eff_Curve_FI % Efficacy
T1 construct: expressed in transfected cells
How it was run: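 PAM activity was measured as FDSS calcium fluorescence in α7-wt nAChR cells loaded with 2 μM Fluo-4AM, with compounds at 0.01–30 μM added alongside or 10 min ahead of sub-maximal 100 μM choline. Peak responses were normalised to choline-only efficacy, and EC50 was taken at half-maximal effect.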

T1 sequence (P36544 23-502): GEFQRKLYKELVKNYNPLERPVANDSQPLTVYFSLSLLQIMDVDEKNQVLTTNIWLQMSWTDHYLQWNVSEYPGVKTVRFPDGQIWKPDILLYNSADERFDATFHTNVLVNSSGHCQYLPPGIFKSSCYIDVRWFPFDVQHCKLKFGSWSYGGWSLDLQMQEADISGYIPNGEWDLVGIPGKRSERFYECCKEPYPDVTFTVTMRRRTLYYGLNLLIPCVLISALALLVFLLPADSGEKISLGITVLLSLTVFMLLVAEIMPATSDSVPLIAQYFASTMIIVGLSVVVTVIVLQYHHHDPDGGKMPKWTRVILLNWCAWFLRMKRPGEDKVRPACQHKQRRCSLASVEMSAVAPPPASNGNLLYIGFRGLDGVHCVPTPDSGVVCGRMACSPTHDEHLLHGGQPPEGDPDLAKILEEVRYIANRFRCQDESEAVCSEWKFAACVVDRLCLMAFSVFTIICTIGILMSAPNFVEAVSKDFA

| Structure (SMILES) | melting point [°C] | EC50 (human alpha 7-wt nAChR) [nM] | Emax (human alpha 7-wt nAChR) [%] |
| --- | --- | --- | --- |
| Cc1cc(-c2sc(N3C[C@@H](C)O[C@@H](C)C3)nc2CNC(=O)c2occc2C)cc(C)n1 [Compound 147, N-[[2-[(2R,6S)-2,6-dimethyl-4-morpholinyl]-5-(2,6-dimethyl-4-pyridinyl)-4-thiazolyl]methyl]-3-methyl-2-furancarboxamide] | 149 | 912 |  |
| Cc1cc(-c2sc(N3C[C@@H](C)O[C@@H](C)C3)nc2CNC(=O)c2ccno2)cc(C)n1 [Compound 149, N-[[2-[(2R,6S)-2,6-dimethyl-4-morpholinyl]-5-(2,6-dimethyl-4-pyridinyl)-4-thiazolyl]methyl]-5-isoxazolecarboxamide] | 164 | 1620 |  |
| Cc1cc(-c2sc(N3C[C@@H](C)O[C@@H](C)C3)nc2CNC(=O)c2sccc2C)cc(C)n1 [Compound 150, N-[[2-[(2R,6S)-2,6-dimethyl-4-morpholinyl]-5-(2,6-dimethyl-4-pyridinyl)-4-thiazolyl]methyl]-3-methyl-2-thiophenecarboxamide] | 184 | 427 | 894 |
| Cc1cc(-c2sc(N3C[C@@H](C)O[C@@H](C)C3)nc2CNC(=O)c2oc(C)nc2C)cc(C)n1 [Compound 159, N-[[2-[(2R,6S)-2,6-dimethyl-4-morpholinyl]-5-(2,6-dimethyl-4-pyridinyl)-4-thiazolyl]methyl]-2,4-dimethyl-5-oxazolecarboxamide] | 193 | 9770 | 704 |
| Cc1cc(-c2sc(N3C[C@@H](C)O[C@@H](C)C3)nc2CNC(=O)c2cnn(C)c2C)cc(C)n1 [Compound 160, N-[[2-[(2R,6S)-2,6-dimethyl-4-morpholinyl]-5-(2,6-dimethyl-4-pyridinyl)-4-thiazolyl]methyl]-1,5-dimethyl-1H-pyrazole-4-carboxamide] | 169 | 8130 |  |
| Cc1cc(-c2sc(N3C[C@@H](C)O[C@@H](C)C3)nc2CNC(=O)c2ncoc2C)cc(C)n1 [Compound 161, N-[[2-[(2R,6S)-2,6-dimethyl-4-morpholinyl]-5-(2,6-dimethyl-4-pyridinyl)-4-thiazolyl]methyl]-5-methyl-4-oxazolecarboxamide] | 201 | 5130 | 509 |
| Cc1cc(-c2sc(N3C[C@@H](C)O[C@@H](C)C3)nc2CNC(=O)c2c(C)noc2C(F)(F)F)cc(C)n1 [Compound 163, N-[[2-[(2R,6S)-2,6-dimethyl-4-morpholinyl]-5-(2,6-dimethyl-4-pyridinyl)-4-thiazolyl]methyl]-3-methyl-5-(trifluoromethyl)-4-isoxazolecarboxamide] | 176 |  | 142 |
| Cc1cc(-c2sc(N3C[C@@H](C)O[C@@H](C)C3)nc2CNC(=O)c2csc(C)c2C)cc(C)n1 [Compound 164, N-[[2-[(2R,6S)-2,6-dimethyl-4-morpholinyl]-5-(2,6-dimethyl-4-pyridinyl)-4-thiazolyl]methyl]-4,5-dimethyl-3-thiophenecarboxamide] | 200 | 166 |  |
| Cc1cc(-c2sc(N3C[C@@H](C)O[C@@H](C)C3)nc2CNC(=O)c2onc(C)c2C)cc(C)n1 [Compound 171, N-[[2-[(2R,6S)-2,6-dimethyl-4-morpholinyl]-5-(2,6-dimethyl-4-pyridinyl)-4-thiazolyl]methyl]-3,4-dimethyl-5-isoxazolecarboxamide] | 192 | 1620 | 669 |
| Cc1cc(-c2sc(N3C[C@@H](C)O[C@@H](C)C3)nc2CNC(=O)c2nn(C)cc2C)cc(C)n1 [Compound 172, N-[[2-[(2R,6S)-2,6-dimethyl-4-morpholinyl]-5-(2,6-dimethyl-4-pyridinyl)-4-thiazolyl]methyl]-1,4-dimethyl-1H-pyrazole-3-carboxamide] | 165 | 2630 | 292 |
| Cc1cc(-c2sc(N3C[C@@H](C)O[C@@H](C)C3)nc2CNC(=O)c2nocc2C)cc(C)n1 [Compound 174, N-[[2-[(2R,6S)-2,6-dimethyl-4-morpholinyl]-5-(2,6-dimethyl-4-pyridinyl)-4-thiazolyl]methyl]-4-methyl-3-isoxazolecarboxamide] | 145 | 537 | 956 |
| Cc1cc(-c2sc(N3C[C@@H](C)O[C@@H](C)C3)nc2CNC(=O)c2ccon2)cc(C)n1 [Compound 180, N-[[2-[(2R,6S)-2,6-dimethyl-4-morpholinyl]-5-(2,6-dimethyl-4-pyridinyl)-4-thiazolyl]methyl]-3-isoxazolecarboxamide] | 179 | 1910 |  |
| Cc1cc(-c2sc(N3CCOC[C@@H]3C)nc2CNC(=O)c2ccc(F)cc2C)cc(C)n1 [Compound 184, N-[[5-(2,6-dimethyl-4-pyridinyl)-2-[(3S)-3-methyl-4-morpholinyl]-4-thiazolyl]methyl]-4-fluoro-2-methyl-benzamide] | 156 | 562 | 974 |
| Cc1cc(-c2sc(N3CCOC[C@@H]3C)nc2CNC(=O)CC2CC2)cc(C)n1 [Compound 187, N-[[5-(2,6-dimethyl-4-pyridinyl)-2-[(3S)-3-methyl-4-morpholinyl]-4-thiazolyl]methyl]-cyclopropaneacetamide] | 138 | 5250 | 994 |
| Cc1cc(-c2sc(N3CCOC[C@@H]3C)nc2CNC(=O)CC(C)C)cc(C)n1 [Compound 189, N-[[5-(2,6-dimethyl-4-pyridinyl)-2-[(3S)-3-methyl-4-morpholinyl]-4-thiazolyl]methyl]-3-methyl-butanamide] | 151 | 1510 |  |
| Cc1cc(C(=O)NCc2nc(N3C[C@@H](C)O[C@@H](C)C3)sc2-c2ccnc(C(F)(F)F)c2)no1 [Compound 199, N-[[2-[(2R,6S)-2,6-dimethyl-4-morpholinyl]-5-[2-(trifluoromethyl)-4-pyridinyl]-4-thiazolyl]methyl]-5-methyl-3-isoxazolecarboxamide] | 228 | 219 |  |
| Cc1cc(-c2sc(N3CC4CCC(C3)O4)nc2CNC(=O)c2cc(C)on2)cc(C)n1 [Compound 210, N-[[5-(2,6-dimethyl-4-pyridinyl)-2-(8-oxa-3-azabicyclo[3.2.1]oct-3-y1)-4-thiazolyl]methyl]-5-methyl-3-isoxazolecarboxamide] | 206 | 3980 | 632 |
| Cc1cc(-c2sc(N3CC4CCC(C3)O4)nc2CNC(=O)c2conc2C)cc(C)n1 [Compound 211, N-[[5-(2,6-dimethyl-4-pyridinyl)-2-(8-oxa-3-azabicyclo[3.2.1]oct-3-yl)-4-thiazolyl]methyl]-3-methyl-4-isoxazolecarboxamide] | 94 | 4900 | 246 |
